# “Also recorded” adds a separate entry of the source.
# Tests used:
# [1] = Fluorescence stability (decomposition) in aqueous solution; type: physicochemical; settings: 37° C.
# Experimental: (FIG. 2B) 5TGM1 cells were treated with DMSO or with 20 μM 2, 4, 3, or 7 dissolved in DMSO for 3 days and subjected to XTT assays. Percentages of growth were determined by comparing treated groups with control groups (DMSO). Each data point derived from four independent groups receiving exactly the same treatment was plotted as mean±SD. Results are representative of three independent experiments. […] The values of I/I0 were plotted as a function of time and shown in the inset. I0 was the initial fluorescence intensity of 4 at 0 h. […] The values of I/I0 were plotted as a function of time and shown in the inset. I0 was the initial fluorescence intensity of 5 at 0 h. […] (FIG. 2G) The decomposition rates of 7 and 8 were plotted as a function of time in RPMI media incubated at 37° C. Aliquots were analyzed by HPLC and the peaks integrated.
# FIGS. 5A-5J illustrate the finding that installation of a boronate cage cleavable by H2O2 stabilizes the 1,3-dioxane acetal protective group of D-F07 to allow for temporal inhibition of XBP-1s upon contact with H2O2. (FIG. 5A) A scheme showing that installation of a boronate-caged group stabilizes the 1,3-dioxane acetal protective group to allow for H2O2-mediated release of intact D-F07. (FIG. 5B) The fluorescence of BC-D-F07a (2.5 μM in the DMSO/PBS solution (v/v=1:99), Ex=360 nm) increases upon incubation with 0 to 200 μM hydrogen peroxide at room temperature for 1 h. (FIG. 5C) The fluorescence of BC-D-F07b (2.5 μM in the DMSO/PBS solution (v/v=1:99), Ex=360 nm) increases upon incubation with 0 to 2 mM hydrogen peroxide at 37° C. for 1 h. […] I0 was the initial fluorescence intensity of D-F07, BC-D-F07a or BC-D-F07b at 0 h. (FIG. 5E) The levels of hydrogen peroxide produced by 5TGM1, 72-h LPS-stimulated primary CLL, MEC2, and WaC3 cells were measured by Amplex Red with or without the addition of extracellular catalase (500 U/mL). (FIG. 5F) 5TGM1 cells were treated with BC-D-F07a at increasing concentrations for 24 h, lysed, and analyzed for the expression of indicated proteins by immunoblots. (FIG. 5G) CD5+ CLL cells purified from spleens of Eμ-TCL1 mice were stimulated with […], subsequently treated with BC-D-F07a at 20 μM for 16 h, and then incubated with hydrogen peroxide at indicated concentrations for another 4 h. Cells were lysed and analyzed for the expression of indicated proteins by immunoblots. […] Cells were lysed and analyzed for the expression of indicated proteins by immunoblots. […] Percentages of growth were determined by comparing treated groups with control groups (DMSO). […]
# UV-vis and fluorescence spectra were carried out on a BioTek SYNERGY™ NEO2 instrument (96 well plate).
# [2] = tested on: XBP-1s expression, 5TGM1 cells; experiment: XBP-1s immunoblot in 5TGM1 multiple myeloma cells; type: cell-based, mouse; settings: for inhibition of XBP-1s expression, short term: 2.5 μM for 1, 2 or 4 h; for suppression of XBP-1s expression, long term: 10 μM for a course of 3 days
# Experimental: 5TGM1 mouse multiple myeloma cells, primary mouse B cells, primary mouse Eμ-TCL1 CLL cells, and human CLL cell lines (MEC2 and WaC3) were cultured at 37° C. in a 5% CO2 incubator using RPMI 1640 media (Gibco) supplemented with 10% heat-inactivated FBS, 2 mM L-glutamine, 100 U/mL penicillin G sodium, 1 mM sodium pyruvate, 0.1 mM non-essential amino acids, 100 μg/mL streptomycin sulfate and 0.1 mM β-mercaptoethanol (β-ME).
# (§1) Cells were lysed using RIPA buffer (10 mM Tris-HCl, pH 7.4, 150 mM NaCl, 1% NP-40, 0.5% sodium deoxycholate, 0.1% SDS, and 1 mM EDTA) supplemented with protease inhibitors (Roche). Protein concentrations were determined by BCA assays (Pierce).
# (§2) Samples were boiled in SDS-PAGE sample buffer (62.5 mM Tris-HCl, pH 6.8, 2% SDS, 10% glycerol, 0.1% bromophenol blue) with β-ME and analyzed by SDS-PAGE. Proteins were transferred to nitrocellulose membranes, blocked in 5% nonfat milk (wt/vol in PBS), and immunoblotted with indicated primary antibodies and appropriate horseradish peroxidase-conjugated secondary antibodies. Immunoblots were developed using Western Lighting Chemiluminescence Reagent (PerkinElmer).
# To develop inhibitors with improved potency to target the IRE1/XBP-1 pathway, tricyclic chromenone-based IRE1 RNase inhibitors with different amine group (R^1) were synthesized and compared: allyloxycarbonyl (alloc) in B-H09 (1), —H in C-B06 (2), and —CH3 in C-D06 (3) (FIG. 1A). 5TGM1 multiple myeloma cells were chosen to evaluate inhibitory effects of these inhibitors because they have constitutively activated IRE1/XBP-1 pathways.
# [3] = tested on: XBP-1s expression, LPS-stimulated primary mouse B cells; experiment: XBP-1s immunoblot in LPS-stimulated primary B cells; type: cell-based; settings: 2.5 or 5 μM for 2 h
# Experimental: FIG. 8 illustrates chemical structures of 6, 4, 7, 8, and 9. Primary B cells purified from spleens of wild-type mice were stimulated with LPS for 72 h, subsequently treated with indicated inhibitors at 2.5 or 5 μM for 2 h, lysed, and analyzed for the expression of indicated proteins by immunoblots.
# as §1, §2
# LPS-stimulated primary mouse B cells were similarly treated with the same inhibitors at 2.5 or 5 μM for 2 h. […] HPLC degradation experiments confirmed that this was indeed the case (FIG. 2G).
# [4] = Compound degradation HPLC assay; type: physicochemical; settings: 37° C.
# Experimental: A 20 mM DMSO stock solution of analyte compounds (7, 8, D-F07, PC-D-F07 and TC-D-F07) were diluted to 400 μM with PBS, pH 7.4, or to 800 μM with RMPI plus 10% FBS culture media (experiments with TC-D-F07 were performed using RPMI without FBS). After incubation at 37° C., aliquots at various time points were injected onto an analytical HPLC instrument and the peaks integrated (UV monitored at 220 nm). Intact compound relative to t=0 was plotted as a function of time.
# [5] = tested on: WaC3 cells; experiment: Cell proliferation XTT assay, WaC3; type: cell-based, human; settings: 20 μM for a course of 3 days
# [6] = Solubility in organic solvent (DMSO); type: physicochemical; settings: such as DMSO
# [7] = tested on: MEC2 cells; experiment: Cell proliferation XTT assay, MEC2; type: cell-based, human; settings: indicated concentrations, 24 h
# [8] = tested on: 5TGM1 cells; experiment: Cell proliferation XTT assay, 5TGM1; type: cell-based, mouse; settings: 0, 2.5, 5, 10 or 20 μM, 24 h
# Experimental: 5TGM1 cells were suspended in phenol red-free RPMI media, seeded in 96-well cell culture plates, and treated with indicated IRE1 inhibitors (20 μM, unless indicated otherwise). At indicated time points, cells were spun down and cell proliferation was assessed by XTT assays (Roche) according to the manufacturer's instructions. Briefly, 50 μl XTT labeling reagent, 1 μl electron-coupling reagent, and 100 μl phenol red-free RPMI media were combined and applied to each well of the 96-well plates. Cells were incubated for 4 h in a CO2 incubator to allow for the yellow tetrazolium salt XTT to be cleaved by mitochondrial dehydrogenases of metabolically active cells to form the orange formazan dye, which can be quantified at 492 nm using a BioTek SYNERGY™ NEO2 Multimode Reader.
smiles,measurement,setting,value
"COc1cc2c3c(c(=O)oc2c(C2OCCCO2)c1B1OC(C)(C)C(C)(C)O1)CN(C)CC3 [BC-D-F07b, 7-(1,3-dioxan-2-yl)-9-methoxy-3-methyl-8-(4,4,5,5-tetramethyl-1,3,2-dioxaborolan-2-yl)-3,4-dihydro-1H-chromeno[3,4-c]pyridin-5(2H)-one]","hydrolysis of 1,3-dioxane acetal by fluorescence decay","[1]; aqueous solution, 0 to 48 h, versus D-F07","stabilized the 1,3-dioxane acetal protecting group"
"CC1(C)COC(c2c(O)ccc3c4c(c(=O)oc23)CNCC4)OC1 [Compound 5, 7-(5,5-dimethyl-1,3-dioxan-2-yl)-8-hydroxy-3,4-dihydro-1H-chromeno[3,4-c]pyridin-5(2H)-one]",fluorescence intensity remaining (decomposition),"[1]; PBS with 1% DMSO, 48 h, from 100%",approximately 60%
"CC(=O)N/N=C/c1c(O)ccc2c3c(c(=O)oc12)CN(C)CC3 [Compound 8, (E)-N′-((8-hydroxy-3-methyl-5-oxo-1,3,4,5-tetrahydro-2H-chromeno[3,4-c]pyridin-7-yl)methylene)acetohydrazide]","inhibition of XBP-1s expression, short term",[2],rapidly inhibited XBP-1s; also recorded: effectively inhibit the expression of XBP-1s for longer than 4 h; also recorded: inhibited the expression of XBP-1s more rapidly than 7
same,"suppression of XBP-1s expression, long term",[2],lost its inhibitory effect after treatment for 2 days
same,suppression of XBP-1s expression,[3],rapidly suppressed the expression of XBP-1s
same,hydrolysis rate (HPLC degradation),[4]; RPMI media,faster hydrolysis relative to 7
"COc1cc2c3c(c(=O)oc2c(/C=N/NC(C)=O)c1O)CN(C)CC3 [Compound 10, (E)-N′-((8-hydroxy-9-methoxy-3-methyl-5-oxo-1,3,4,5-tetrahydro-2H-chromeno[3,4-c]pyridin-7-yl)methylene)acetohydrazide]","inhibition of XBP-1s expression, short term",[2],suppressed the expression of XBP-1s more rapidly than 8
same,"suppression of XBP-1s expression, long term",[2],exhibited a long-term inhibitory effect; also recorded: slightly recovered in cells treated with 10 for 3 days
same,growth suppression (XTT),[5],initially more potent than 7 and 8 in suppressing WaC3 cell growth; also recorded: incapable of continuously inhibiting the growth of WaC3 cells
"COc1cc2c3c(c(=O)oc2c(C2OCCCO2)c1O)CNCC3 [Compound 11, 7-(1,3-dioxan-2-yl)-8-hydroxy-9-methoxy-1,2,3,4-tetrahydro-5H-chromeno[3,4-c]pyridin-5-one]","suppression of XBP-1s expression, long term",[2],more potent than 4 in suppressing XBP-1s expression; also recorded: less potent than D-F07 in suppressing the expression of XBP-1s
same,solubility relative to 4,[6],at least 16 times less soluble
"N[C@@H](CSc1ccc([N+](=O)[O-])cc1[N+](=O)[O-])C(=O)O [Compound 12, (S-2,4-Dinitrophenyl)cysteine]",expression of XBP-1s (ER stress induction),"[2]; 10 μM, 0 to 24 h",time-dependent increased expression of XBP-1s
same,cytotoxicity / growth inhibition (XTT),[7],not cytotoxic to MEC2 cells
"COc1cc2c3c(c(=O)oc2c(C2OCCCO2)c1OS(=O)(=O)c1ccc([N+](=O)[O-])cc1[N+](=O)[O-])CN(C)CC3 [TC-D-F07, 7-(1,3-dioxan-2-yl)-9-methoxy-3-methyl-5-oxo-1,3,4,5-tetrahydro-2H-chromeno[3,4-c]pyridin-8-yl 2,4-dinitrobenzenesulfonate]",suppression of XBP-1s expression,"[2]; 2.5 μM, 3 h",significantly suppress the expression of XBP-1s
same,"levels of XBP-1s, time course","[2]; 2.5 μM, 12 h",the levels of XBP-1s began to recover
same,"levels of XBP-1s, time course","[2]; 10 μM, 0 to 12 h",initially increased after 3-h treatment and subsequently decreased in response to continuous 12-h treatment
same,levels of XBP-1s,"[2]; 10 and 20 μM, 3 h",levels of XBP-1s increased
same,cytotoxicity (XTT),[8],more cytotoxic than D-F07
same,cytotoxicity / growth inhibition (XTT),[7],potently inhibited the growth of these cells
same,intact compound,[4]; 4-h incubation in both PBS and RPMI media,90%
same,decomposition rate (HPLC) versus D-F07,[4]; PBS,slower decomposition rate

# Source: US11833137B2, “Substituted chromenones, IRE1 inhibitors, and methods of using same” (The Wistar Institute, priority 2018, dated 2023)
